Values joined by “and” are separate entries in the source; they are usually repeats but may differ in a detail not shown here. Equal values may be shown once. Read-outs that look alike come from different tables or passages of the source.
Tests used:
Assay type in all cases: cell-based
[1] = test system: Microglial cells; assay: Dose response inhibition of NO release from microglia, 0.75-200 μM (Example 8)
Protocol: This experiment was designed to determine dose response inhibition of NO release from microglia by bis- and tris-dihydroxyaryl compounds when stimulated with LPS/IFNγ. […] This experiment is designed to determine a dose response for various bis- and tris-dihydroxyaryl compounds. Microglial cells were plated into 96 well plates at 1×10^5 cells/ml. […] The doses tested were: 0.75 μM, 1.56 μM, 3.125 μM, 6.25 μM, 12.5 μM, 25 μM, 50 μM, 100 μM and 200 μM. Nitric oxide release was measured after 48 hours using the Griess reaction.

[2] = test system: microglia; assay: Ranking of NO release inhibition (Example 12); details: Microglia, ranking table
Excerpt: The bis- and tris-dihydroxyaryl compounds were ranked in order of effectiveness for the inhibition of NO release as set out in Table 8.

[3] = test system: EOC 13.31 microglia cells; assay: NO release inhibition in LPS/IFNγ stimulated microglia, concurrent treatment, Griess reaction at 24 hours (Example 6); details: 24 hours; for NO release, Avg: 50 μM; for inhibition at 50 µM: Microglia
Method in brief: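 Confluent EOC 13.31 microglia were given 50 μM compound together with 1 pg/ml LPS plus 1 ng/ml IFNγ, or without stimulation. NO release was quantified spectrophotometrically by Griess reaction 24 hours later.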

[4] = test system: Microglial cells; assay: Dose response inhibition of NO release from microglia, 0.5-500 μM (Example 9); details: for μM NO release / μM NO release (No LPS average subtracted): 3 replicates
Protocol: This experiment was designed to determine the dose response inhibition of NO release from microglia by bis- and tris-dihydroxyaryl compounds when stimulated with LPS/IFNγ. Earlier experiments have demonostrated that some bis- and tris-dihydroxyaryl compounds are good inhibitors of NO release from microglia. This experiment is designed to determine a dose response for various effective bis- and tris-dihydroxyaryl compounds. Microglial cells were plated into 96 well plates at 1×10^5 cells/ml. At 48 hours, media was exchanged for media containing 10 ng/ml IFNγ and 10 μg/ml LPS and the following compounds 3, 4, 21, 26 and the positive control L-NAME. The doses tested were: 0.5 μM, 1.0 μM, 5.0 μM, 10 μM, 25 μM, 50 μM, 100 μM, 250 μM, and 500 μM. Nitric oxide release was measured after 48 hours using the Griess reaction.

[5] = dose 0.75 μM, 48 hours, single replicates
[6] = dose 1.56 μM, 48 hours, single replicates
[7] = dose 3.125 μM, 48 hours, single replicates
[8] = dose 6.25 μM, 48 hours, single replicates
[9] = dose 12.5 μM, 48 hours, single replicates
[10] = dose 25 μM, 48 hours, single replicates
[11] = dose 50 μM, 48 hours, single replicates
[12] = dose 100 μM, 48 hours, single replicates
[13] = dose 200 μM, 48 hours, single replicates
[14] = dose 0.5 μM, LPS/IFNγ, 48 hours
[15] = dose 100 μM, LPS/IFNγ, 48 hours
[16] = dose 250 μM, LPS/IFNγ, 48 hours
[17] = dose 500 μM, LPS/IFNγ, 48 hours

O=C(NCc1ccc(O)c(O)c1)C(=Cc1ccc(O)c(O)c1)NC(=O)c1ccc(O)c(O)c1 [Compound 21, α-(3,4-dihydroxybenzamido)-3,4-dihydroxycinnamic acid 3,4-dihydroxybenzyl amide]
inhibition at 0.75 µM ([1]; Microglia, 48 h, dose 0.75 μM): -15.5% | inhibition at 1.56 µM ([1]; Microglia, 48 h, dose 1.56 μM): -6.58% | inhibition at 3.125 µM ([1]; Microglia, 48 h, dose 3.125 μM): -6.05% | inhibition at 6.25 µM ([1]; Microglia, 48 h, dose 6.25 μM, 48 hours, read-out: Avg % Inhibition): -1.84% | inhibition at 12.5 µM ([1]; Microglia, 48 h, dose 12.5 μM, 48 hours, read-out: Avg % Inhibition): 5% | inhibition at 25 µM ([1]; Microglia, 48 h, dose 25 μM, 48 hours, read-out: Avg % Inhibition): 2.9% | inhibition at 50 µM ([1]; Microglia, 48 h, dose 50 μM, 48 hours, read-out: Avg % Inhibition): 13.7% | inhibition at 50 µM ([1]; Microglia, 48 h, dose 50 μM, 48 hours, single replicates, read-out: % inhibition): 16.3% | inhibition at 100 µM ([1]; Microglia, 48 h, dose 100 μM, 48 hours, read-out: Avg % Inhibition): 33.7% | inhibition at 100 µM ([1]; Microglia, 48 h, dose 100 μM, 48 hours, single replicates, read-out: % inhibition): 33.7% | inhibition at 200 µM ([1]; Microglia, 48 h, dose 200 μM, 48 hours, read-out: Avg % Inhibition): 69% | inhibition at 200 µM ([1]; Microglia, 48 h, dose 200 μM, 48 hours, single replicates, read-out: % inhibition): 67.6% | μM NO release Avg ([1]; dose 0.75 μM, 48 hours): 22.865 µM | % inhibition [1, 5]: −16.05% and −17.63% and −12.89% | OD values (printed under head μM NO release) [1, 5]: 0.195 and 0.199 and 0.201 | μM NO release [1, 5]: 22.344 µM and 22.969 µM and 23.281 µM | μM NO release Avg ([1]; dose 1.56 μM, 48 hours): 21.094 µM | % inhibition [1, 6]: −8.16% and −9.74% and −1.84% | OD values (printed under head μM NO release) [1, 6]: 0.181 and 0.189 and 0.191 | μM NO release [1, 6]: 20.156 µM and 21.406 µM and 21.719 µM | μM NO release Avg ([1]; dose 3.125 μM, 48 hours): 20.990 µM | % inhibition [1, 7]: −4.21% and −8.16% and −5.79% | OD values (printed under head μM NO release) [1, 7]: 0.186 and 0.184 and 0.189 | μM NO release [1, 7]: 20.938 µM and 20.625 µM and 21.406 µM | μM NO release Avg ([1]; dose 6.25 μM, 48 hours): 20.156 µM | % inhibition [1, 8]: 2.89% and −3.42% | OD values (printed under head μM NO release) [1, 8]: 0.183 and 0.175 and 0.185 | μM NO release [1, 8]: 20.469 µM and 19.219 µM and 20.781 µM | μM NO release Avg ([1]; dose 12.5 μM, 48 hours): 18.802 µM | % inhibition [1, 9]: 5.26% and −4.21% and 13.95% | OD values (printed under head μM NO release) [1, 9]: 0.161 and 0.172 and 0.184 | μM NO release [1, 9]: 17.031 µM and 18.750 µM and 20.625 µM | μM NO release Avg ([1]; dose 25 μM, 48 hours): 19.219 µM | % inhibition [1, 10]: 7.63% and 1.32% and −0.26% | OD values (printed under head μM NO release) [1, 10]: 0.179 and 0.169 and 0.177 | μM NO release [1, 10]: 19.844 µM and 18.281 µM and 19.531 µM | μM NO release Avg ([1]; dose 50 μM, 48 hours): 17.083 µM | % inhibition [1, 11]: 10.79% and 13.95% | OD values (printed under head μM NO release) [1, 11]: 0.161 and 0.158 and 0.165 | μM NO release [1, 11]: 17.031 µM and 16.563 µM and 17.656 µM | μM NO release Avg ([1]; dose 100 μM, 48 hours): 13.125 µM | OD values (printed under head μM NO release) [1, 12]: 0.136 | μM NO release [1, 12]: 13.125 µM | Avg % Inhibition ([1]; dose 200 μM, 48 hours): 69.211% | μM NO release Avg ([1]; dose 200 μM, 48 hours): 6.094 µM | % inhibition [1, 13]: 68.42% and 71.58% | OD values (printed under head μM NO release) [1, 13]: 0.087 and 0.093 and 0.092 | μM NO release [1, 13]: 5.625 µM and 6.41 µM | inhibition of NO release, in words ([1]; dose response 0.75-200 μM): effective inhibitors of NO release | inhibition at 50 µM [2]: 18% | NO release, Avg ([3]; Compound + LPS/IFNγ): 15.3486 µM | NO release, Avg ([3]; Compound Only (without LPS/IFNγ)): -0.0417 µM | inhibition at 50 µM ([3]; Compound + LPS/IFNγ, read-out: % inhibition of NO release): 17.6% | inhibition at 50 µM ([3]; Table 2 summary, LPS/IFNγ, read-out: % Inhibition (summary of inhibition of NO release)): 17.6% | inhibition at 0.5 µM ([4]; Microglia, 48 h, dose 0.5 μM, NO release, LPS/IFNγ, 48 hours, read-out: Avg % Inhibition): -0.76% | inhibition at 1 µM ([4]; Microglia, 48 h, dose 1 μM, NO release, LPS/IFNγ, 48 hours, read-out: Avg % Inhibition): 1.01% | inhibition at 5 µM ([4]; Microglia, 48 h, dose 5 μM, NO release, LPS/IFNγ): 0.76% | inhibition at 10 µM ([4]; Microglia, 48 h, dose 10 μM, NO release, LPS/IFNγ): -1.27% | inhibition at 25 µM ([4]; Microglia, 48 h, dose 25 μM, NO release, LPS/IFNγ): 4.82% | inhibition at 50 µM ([4]; Microglia, 48 h, dose 50 μM, NO release, LPS/IFNγ): 13.2% | inhibition at 100 µM ([4]; Microglia, 48 h, dose 100 μM, NO release, LPS/IFNγ, 48 hours, read-out: Avg % Inhibition): 35.2% | inhibition at 100 µM ([4]; Microglia, 48 h, dose 100 μM, individual replicates, NO release, LPS/IFNγ, 48 hours, read-out: % inhibition): 29.4% | inhibition at 250 µM ([4]; Microglia, 48 h, dose 250 μM, NO release, LPS/IFNγ, 48 hours, read-out: Avg % Inhibition): 83.5% | inhibition at 250 µM ([4]; Microglia, 48 h, dose 250 μM, individual replicates, NO release, LPS/IFNγ, 48 hours, read-out: % inhibition): 81% | inhibition at 500 µM ([4]; Microglia, 48 h, dose 500 μM, NO release, LPS/IFNγ, 48 hours, read-out: Avg % Inhibition): 80.3% | inhibition at 500 µM ([4]; Microglia, 48 h, dose 500 μM, individual replicates, NO release, LPS/IFNγ, 48 hours, read-out: % inhibition): 78% | μM NO release [4, 14]: 19.722 µM and 20.139 µM and 20.417 µM | μM NO release (No LPS average subtracted) [4, 14]: 18.02 µM and 18.44 µM and 18.72 µM | % inhibition ([4]; dose 0.5 μM, individual replicates, NO release, LPS/IFNγ, 48 hours): 1.27% and −1.01% and −2.54% | μM NO release ([4]; dose 1 μM, LPS/IFNγ, 48 hours): 20.694 µM and 19.444 µM and 19.167 µM | μM NO release (No LPS average subtracted) ([4]; dose 1 μM, LPS/IFNγ, 48 hours): 18.99 µM and 17.74 µM and 17.47 µM | % inhibition ([4]; dose 1 μM, individual replicates, NO release, LPS/IFNγ, 48 hours): −4.06% and 2.79% and 4.31% | μM NO release ([4]; dose 5 μM, LPS/IFNγ, 48 hours): 20.278 µM and 20.000 µM and 19.167 µM | μM NO release (No LPS average subtracted) ([4]; dose 5 μM, LPS/IFNγ, 48 hours): 18.58 µM and 18.30 µM and 17.47 µM | % inhibition ([4]; dose 5 μM, individual replicates, NO release, LPS/IFNγ, 48 hours): −1.78% and −0.25% and 4.31% | μM NO release ([4]; dose 10 μM, LPS/IFNγ, 48 hours): 20.556 μM (2×) and 19.444 μM | μM NO release (No LPS average subtracted) ([4]; dose 10 μM, LPS/IFNγ, 48 hours): 18.86 μM (2×) and 17.74 μM | % inhibition ([4]; dose 10 μM, individual replicates, NO release, LPS/IFNγ, 48 hours): −3.30% (2×) and 2.79% | μM NO release ([4]; dose 25 μM, LPS/IFNγ, 48 hours): 19.722 µM and 18.889 µM and 18.611 µM | μM NO release (No LPS average subtracted) ([4]; dose 25 μM, LPS/IFNγ, 48 hours): 18.02 µM and 17.19 µM and 16.91 µM | % inhibition ([4]; dose 25 μM, individual replicates, NO release, LPS/IFNγ, 48 hours): 1.27% and 5.83% and 7.36% | μM NO release ([4]; dose 50 μM, LPS/IFNγ, 48 hours): 18.472 µM and 16.806 µM and 17.361 µM | μM NO release (No LPS average subtracted) ([4]; dose 50 μM, LPS/IFNγ, 48 hours): 16.77 µM and 15.11 µM and 15.66 µM | % inhibition ([4]; dose 50 μM, individual replicates, NO release, LPS/IFNγ, 48 hours): 8.12% and 17.25% and 14.20% | μM NO release [4, 15]: 14.583 µM and 12.639 µM and 13.333 µM | μM NO release (No LPS average subtracted) [4, 15]: 12.88 µM and 10.94 µM and 11.63 µM | % inhibition ([4]; dose 100 μM, individual replicates, NO release, LPS/IFNγ, 48 hours): 40.07% and 36.27% | μM NO release [4, 16]: 5.163 µM and 3.940 µM and 5.027 µM | μM NO release (No LPS average subtracted) [4, 16]: 3.46 µM and 2.24 µM and 3.33 µM | % inhibition ([4]; dose 250 μM, individual replicates, NO release, LPS/IFNγ, 48 hours): 87.73% and 81.77% | μM NO release [4, 17]: 5.707 µM and 4.348 µM and 5.842 µM | μM NO release (No LPS average subtracted) [4, 17]: 4.01 µM and 2.65 µM and 4.14 µM | % inhibition ([4]; dose 500 μM, individual replicates, NO release, LPS/IFNγ, 48 hours): 85.49% and 77.31% | inhibition of NO release, in words ([4]; dose response 0.5-500 μM): most effective at the 250 μM dose
